# From patent US9855225B2, “Cannabinoid receptor treatments” (TEMPLE UNIVERSITY OFFICE OF TECHNOLOGY TRANSFER, priority 2011, dated 2018)
# Where “and” joins values, the source holds several entries; their conditions need not be identical. Equal entries are not always repeated. Where two headings read alike, the source gives them in different places.
# How the values were obtained:
# [1] = test system: C57BL/6 responder splenocytes from WT mice; assay: One-way mixed lymphocyte reaction (MLR), [3H]-thymidine incorporation, wild-type responder splenocytes; type: cell-based, mouse; conditions: for Inhibition of the MLR: WT splenocytes, agonist 16 and 32 μM, 3 h
# Method: The MLR assay is a common method used to evaluate the cellular immune responses from two different individuals or animals and is considered to be an in vitro correlate of skin and organ transplant rejection. Lymphocytes from two different populations can be incubated together in which the T cells recognize the foreign cells from the other strain, become activated, proliferate and take up tritiated thymidine ([^3H]-thymidine). Results from this assay (Examples 1, 2 and 4) are expressed as a Suppression Index (SI), where untreated spleen cells are given a value of 1.00 (100%), and responses of cultures receiving treatment with cannabinoids are calculated as: […]
# All SI data were transformed to normalized ranks to accommodate non-normality of the data. ANOVA was used to test for significant differences between groups.
# The aim of the next series of experiments was to test the hypothesis that suppression of proliferation in the MLR is a CB2 receptor-mediated function.
# [2] = test system: MLR culture cells; assay: Cell viability in MLR cultures by flow cytometry (LIVE/DEAD stain); type: cell-based, mouse; conditions: parallel MLR cultures
# Method: Lastly, cultures were run in parallel with each experimental MLR and tested by flow cytometry to assess viability using LIVE/DEAD® Fixable Dead Cell Stain Kit (Molecular Probes, Inc.; Eugene, Oreg.). Cells (1×10^6) from the culture were resuspended in 1 ml FCM Staining Buffer and incubated for 30 min at room temperature with 1 μl dead cell stain. Cells were washed twice and resuspended in FCM staining buffer and analyzed using an LSRII (BD Biosciences) flow cytometer, and the data were analyzed using FACSDiva™ software (BD Biosciences).
# [3] = test system: CD3+ cells (T cells) and CD11b+ cells; type: cell-based, mouse; conditions: 1-32 μM, 3 hours, fractions added back
# [4] = test system: CD3+ T-cell population; assay: mRNA expression (microarray/qPCR) in CD3+ T-cells from the MLR; type: cell-based, mouse; conditions: 32 μM/ml, 18 hours, vs vehicle
# Method: This experiment was carried out to screen for molecules that are modulated by exposure of mouse spleen cells to the CB2 receptor agonist (FIG. 6). The experiment used a commercial microarray (Qiagen) that tests the levels of 89 different mRNAs. Spleen cells were placed in culture to carry out a standard Mixed Lymphocyte Reaction (MLR) assay. Experimental wells received 32 μM/ml of the selective CB2 receptor agonist, O-1966, and control wells received vehicle (0.4% ethanol). […] The decrease in CD40L and Cyclin D3 mRNA was significant because CD40L is an activation molecule for T-cells, and Cyclin D3 is a molecule involved in cell division. T-cell activation and division are decreased after exposure to the selective CB2 receptor agonist.
# [5] = test system: IL-10 release in the MLR; assay: IL-10 release in the MLR; type: cell-based, mouse; conditions: 32 μM, supernatants after 24 hours
# Method: An MLR assay was performed in which experimental wells received 32 μM/ml of O-1966 and control wells received vehicle (FIGS. 7 and 9). Supernatants were collected after 24 hours. […] IL-10 is an immunosuppressive cytokine, so its rise induced by the CB2 receptor agonist provides a mechanism of action for the cannabinoid in suppressing the MLR. In a separate MLR some wells received 1.6 μg/ml of anti-IL-10 antibody. Wells that received no antibody and 32 μM 0-1966 had 90% suppression of proliferation compared to untreated cells. Cells that were treated with anti-IL-10 antibody and 32 μM O-1966 had 43% suppression of proliferation compared to wells that received anti-IL-10 antibody only.
# [6] = test system: Tregs; assay: Tregs (Foxp3+ CD4+) in the MLR by flow cytometry; type: cell-based, mouse; conditions: 48 hours
# Method: An MLR assay was performed in which experimental wells received 32 μM/ml of O-1966 and control wells received vehicle (FIG. 8). At 48 hours, cells were harvested and stained for expression of Foxp3 and CD4 (Cells that are double positive for these two markers are considered Tregs). Cells were analyzed for marker expression by flow cytometry. Wells that received no treatment had 2.1%+/−0.14 Tregs compared to wells that were treated with 32 μM O-1966 which had 4.3%+/−0.27 Tregs. These differences were statistically significant, as 20,000 cells were counted in each group. Tregs are a relatively newly recognized subset of T-cells that suppress T-cell immune responses. Thus, an increase their number induced by the CB2 receptor agonist provides a second mechanism by which the cannabinoid is altering T-cell responsiveness in the MLR assay.
# An MLR was performed in which some wells received 1.6 μg/ml of anti-IL-10 antibody (FIG. 10). Cells were harvested at 48 hours and stained as described under #3 above for Tregs. Cells that received 32 μM O-1966 and no anti-IL-10 antibody had 4.3%+/−0.28 Tregs. Wells that received only anti-IL-10 antibody and no O-1966, had 1.7%+/−0.16 Tregs. Wells that received anti-IL-10 antibody in addition to 32 μM O-1966 had 2.9%+/−0.25 Tregs.
# [7] = test system: C57Bl/6 mice with skin grafts from C3HeB/FeJ mice; assay: Skin graft rejection in mice; type: in vivo, mouse; conditions: 5 mg/kg intraperitoneal every other day for 14 days
# Method: Groups of C57Bl/6 mice received skin grafts from C3HeB/FeJ mice that are histoincompatible (FIG. 11). Starting one hour before grafting mice were treated by intraperitoneal injection with either 5 mg/kg of the CB2 receptor agonist, O-1966, or vehicle. (Volumes were based on weight. but were usually approximately 0.2 ml.) every other day for 14 days, and monitored for graft rejection. Mice that received O-1966 treatment had viable grafts 2.7 days longer than vehicle treated mice, which was statistically significant.
# [8] = test system: splenocytes from skin graft recipient mice; assay: Ex vivo MLR of splenocytes from treated skin graft recipient mice; set-up: species or system mouse; conditions: 5 mg/kg every other day 14 days; spleens day 14; 48 hr in culture
# Method: Splenocytes from O-1966 treated skin graft recipient mice have decreased proliferation in an ex vivo MLR. (FIG. 12). Groups of mice received skin grafts and were treated with either 5 mg/kg O-1966 or vehicle every other day for 14 days. Spleens were removed on day 14 and placed in an MLR assay. The cells were restimulated in vitro with splenocytes from an incompatible mouse strain, but they received no additional treatment with a cannabinoid in vitro.
# [9] = test system: splenic Tregs; assay: Splenic Tregs of treated skin graft recipient mice by flow cytometry; type: in vivo, mouse
# Method: O-1966 treated mice that received skin grafts have an increased percentage of splenic Tregs. (FIGS. 13 and 14): Spleen cells taken from the animals described in C1 above were harvested from animals, and a sample was immediately analyzed by flow cytometry. Another sample was placed in culture for 48 hours. […] Cells that were harvested after 48 hours in the MLR had 4.75% Tregs in the vehicle treated mice and 9.7% Tregs in the O-1966 treated mice.
# [10] = Spleen weight of treated skin graft recipient mice; type: in vivo, mouse; conditions: Day 14, 5 mg/kg every other day
# Source text: Spleens were removed on Day 14 and weighed. Spleens from vehicle treated mice were 0.093+/−0.01 grams and spleens from O-1966 mice were 0.077+/−0.006 grams. Spleens of untreated mice average 0.072+/−0.009 grams (historical data). The average spleen weight index ([spleen weight/body weight]×100) was 0.46% in vehicle treated mice and 0.38% in O-1966 treated mice.
# [11] = test system: IL-2 release from splenocytes from CB2R-/- KO mice; assay: IL-2 release in MLR supernatants by ELISA, CB2R-/- KO splenocytes; conditions: supernatants at 24 hours
# [12] = test system: C57BL/6 responder splenocytes from WT mice; conditions: added to unfractionated murine spleen cells; previously shown by the inventors; cited from earlier work
# [13] = test system: mouse splenocytes; conditions: primary and secondary in vitro assays; earlier work of the inventors; cited from earlier work
compound,measurement,setting,value
"CCCn1c(C)c(C(=O)c2cccc3ccccc23)c2ccccc21 [JWH-015, reference compound]",Inhibition of the MLR,[1],markedly inhibited the MLR
"CCCCCCC(C)(C)c1cc(OC)c(C2(O)CCCC(C)C2)c(OC)c1 (centres unmarked) [O-1966, 1-{4-(1,1-Dimeyhyl-heptyl)-2,6-dimethoxy-phenyl}-3-methyl-cyclohexanol]",Suppression of proliferation,"[1]; 32 μM plus 1.6 μg/ml anti-IL-10 antibody, compared to antibody only",43%
same,Suppression of proliferation,"[1]; 32 μM, no antibody, compared to untreated cells",90%
same,Inhibition of the MLR,[1],markedly inhibited the MLR
same,Effect on cell death (live versus dead cells),[2],did not affect cell death
same,"SI values, CD3+ treated versus CD11b+ treated fractions",[3],selectively reduced the SI values for cultures in which the CD3^+ cells were treated
same,CD40L mRNA expression,[4],−4.60 fold
same,Cyclin D3 mRNA expression,[4],−4.10 fold
same,IL-10 mRNA expression,[4],4.74 fold
same,Sla2 mRNA expression,[4],4.75 fold
same,Socs5 mRNA expression,[4],4.37 fold
same,IL-10 release in the MLR,[5],96.75 pg/mL
same,Increase of IL-10 release in the MLR,[5],2.46 fold
same,Tregs (Foxp3+ CD4+),[6]; 32 μM O-1966 plus 1.6 μg/ml anti-IL-10 antibody,2.9%+/−0.25
same,Tregs (Foxp3+ CD4+),"[6]; 32 μM, no anti-IL-10 antibody",4.3%+/−0.27 and 4.3%+/−0.28
same,Viable grafts longer than vehicle treated mice,[7],2.7 days
same,Decreased proliferation in ex vivo MLR compared to vehicle treated mice,[8],50%
same,"Tregs (CD4+, Foxp3+) of the CD4 cells","[9]; analyzed immediately after sacrifice, day 14, 5 mg/kg",32.2%
same,Tregs after 48 hours in the MLR,"[9]; ex vivo MLR 48 hours, 5 mg/kg in vivo",9.7%
same,Average spleen weight index ([spleen weight/body weight]×100),[10],0.38%
same,Spleen weight,[10],0.077+/−0.006 grams
same,Inhibition of IL-2 release,[11],without effect
"CCCCCc1cc(O)c2c(c1)OC(C)(C)[C@@H]1CCC(C)=C[C@@H]21 [THC (Marinol), Δ^9-tetrahydrocannabinol]",Inhibition of the MLR,[12],inhibit the MLR
same,Immunosuppression in plaque-formation cell assays,[13],induce dose-related immunosuppression
"CCCCC/C=C\C/C=C\C/C=C\C/C=C\CCCC(=O)NCCO [anandamide, arachidonoylethanolamide]",Immunosuppression in plaque-formation cell assays,[13],induce dose-related immunosuppression
SR144528 [reference compound],Block of suppression of the MLR by JWH-015 and O-1966,[1]; antagonist 32-320 μM added 2 h before agonist (16 and 32 μM),blocked suppression
